Assay [1] relates to HIV-1 (wild type). In words: P24 cellular assay (EC50), data identified with * in Table 9, wild type. It is filed as cell-based. As to conditions: Human immunodeficiency virus 1. The source says: (§1) P24 Cellular Assay (EC50) (Data Identified with * in Table 9).
(§2) The p24 assay is as described in WO 01/96338, the contents of which are herein incorporated by reference.
(§3) The results are listed in Table 9 as IC50(nM) and EC50 (nM).
(§4) Table legend: A=>100; B=100-50; C=<50; NT=not tested

Assay [2] has as its system HIV-1 resistant mutant K103N/Y181C. In words: P24 cellular assay (EC50), data identified with * in Table 9, resistant mutant. It is filed as cell-based. Conditions: Human immunodeficiency virus 1, read-out: EC50 K103N/Y181C.
Text: as §1, §2, §3, §4

For assay [3], the target named is T1, HIV-1 RT enzyme (wild type) (Human immunodeficiency virus type 1 group M subtype B, UniProt P04585).
T1 construct: The reverse transcriptase (RT) enzyme assay has been adapted to a 96-well microtiter plate format
In words: Reverse transcriptase (RT) enzymatic assay (IC50), PicoGreen fluorescence, wild type. It is filed as biochemical. The procedure, abridged: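 Enzyme at ≈10 nM in 50 mM Tris/HCl pH 7.8 with 60 mM NaCl, 2 mM MgCl2, 6 mM DTT, 2 mM GSH, 0.02% Chaps; 15 min preincubation with compound at room temperature, then substrate added and run 50 min at 37 °C. EDTA quench; product DNA read by PicoGreen fluorescence.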

Assay [4] deals with T2, HIV-1 RT resistant mutant K103N/Y181C (Human immunodeficiency virus type 1 group M subtype B, UniProt P04585, K690N/Y768C).
T2 construct: The reverse transcriptase (RT) enzyme assay has been adapted to a 96-well microtiter plate format
In words: Reverse transcriptase (RT) enzymatic assay (IC50), PicoGreen fluorescence, resistant mutant. It is filed as biochemical.

Setting [5] is: RT enzymatic assay, wild type, read-out: IC50 WT.

SMILES strings stand for the structures. Read-outs that look alike come from different tables or passages of the source. Some results are limits rather than exact numbers.

Usually IC50 stands for the concentration that inhibits the measured activity by half.

Consider `O=C(CSc1nnnn1-c1cccc2ccccc12)Nc1ccccc1[N+](=O)[O-]` [Entry 101, 2-{{1-(1-Naphthalenyl)-1H-tetrazol-5-yl}thio}-N-(2-nitrophenyl)acetamide], for which the EC50 is under 50 nM in assay [1] and over 100 nM in assay [2].
For the compound `O=C(CSc1nnnn1-c1ccc2ccccc2c1)Nc1ccccc1[N+](=O)[O-]` [Entry 103], the IC50 was under 50 nM in assay [3] and over 100 nM in assay [4]. The EC50 was under 50 nM in assay [1] and over 100 nM in assay [2].
As for `O=C(CSc1nnnn1-c1cccc2c1CCCC2)Nc1ccccc1[N+](=O)[O-]` [Entry 104], the IC50 in assay [3] is under 50 nM; in assay [4], over 100 nM. The values for the EC50 in assay [1] and in assay [2] were under 50 nM and over 100 nM, respectively.
Take `O=C(CSc1nnnn1-c1ccc2c(c1)CCC2)Nc1ccccc1[N+](=O)[O-]` [Entry 105]: the values for the IC50 in assay [3] and in assay [4] were under 50 nM and over 100 nM, respectively. In addition, the EC50 in assay [1] is under 50 nM; in assay [2], over 100 nM.
On to `Cc1ccccc1-n1nnnc1SCC(=O)Nc1ccccc1[N+](=O)[O-]` [Entry 109], for which the IC50 in assay [3] was 50 to 100 nM; in assay [4], over 100 nM. For the same compound, the EC50 in assay [1] was under 50 nM; in assay [2] it was over 100 nM.
Take `O=C(CSc1nnnn1-c1ccccc1C(F)(F)F)Nc1ccccc1[N+](=O)[O-]` [Entry 111]: the IC50 in assay [3] is 50 to 100 nM; in assay [4], over 100 nM. The figures for the EC50 in assay [1] and in assay [2] were under 50 nM and over 100 nM, respectively.
For the compound `O=C(CSc1nnnn1-c1ccccc1Cl)Nc1ccccc1[N+](=O)[O-]` [Entry 114], the values for the IC50 in assay [3] and in assay [4] were under 50 nM and over 100 nM, respectively. For the same compound, the EC50 was under 50 nM in assay [1] and over 100 nM in assay [2].
Regarding `COc1ccccc1-n1nnnc1SCC(=O)Nc1ccccc1[N+](=O)[O-]` [Entry 115], the results for the IC50 in assay [3] and in assay [4] were 50 to 100 nM and over 100 nM, respectively. Further, the EC50 in assay [1] is under 50 nM; in assay [2], over 100 nM.
For `Cc1cccc(-n2nnnc2SCC(=O)Nc2ccccc2[N+](=O)[O-])c1` [Entry 118], the results for the IC50 in assay [3] and in assay [4] were 50 to 100 nM and over 100 nM, respectively. The EC50 is under 50 nM in assay [1] and over 100 nM in assay [2].
With `Cc1cccc(-n2nnnc2SCC(=O)Nc2ccccc2[N+](=O)[O-])c1C` [Entry 122], the IC50 in assay [3] is under 50 nM; in assay [4], over 100 nM. For the same compound, the EC50 in assay [1] is under 50 nM; in assay [2], over 100 nM.
As to `Cc1c(Cl)cccc1-n1nnnc1SCC(=O)Nc1ccccc1[N+](=O)[O-]` [Entry 124], the IC50 in assay [3] is under 50 nM; in assay [4] it was over 100 nM. The EC50 in assay [1] is under 50 nM; in assay [2], 50 to 100 nM.
As for `Cc1ccc(-n2nnnc2SCC(=O)Nc2ccccc2[N+](=O)[O-])c(C)c1` [Entry 125], the IC50 in assay [3] was under 50 nM; in assay [4], over 100 nM. Also, the EC50 in assay [1] was under 50 nM; in assay [2], over 100 nM.
As for `COc1ccc(-n2nnnc2SCC(=O)Nc2ccccc2[N+](=O)[O-])c(C)c1` [Entry 127], the results for the IC50 in assay [3] and in assay [4] were under 50 nM and over 100 nM, respectively. The values for the EC50 in assay [1] and in assay [2] were under 50 nM and over 100 nM, respectively.
Take `Cc1cc(Cl)ccc1-n1nnnc1SCC(=O)Nc1ccccc1[N+](=O)[O-]` [Entry 128]: the IC50 in assay [3] and in assay [4] was over 100 nM throughout. In addition, the EC50 in assay [1] is under 50 nM; in assay [2], over 100 nM.
Take `Cc1ccc(-n2nnnc2SCC(=O)Nc2ccccc2[N+](=O)[O-])c(Cl)c1` [Entry 129]: the IC50 in assay [3] is under 50 nM; in assay [4] it was over 100 nM. Further, the EC50 in assay [1] and in assay [2] was under 50 nM each time.
`COc1cc(-n2nnnc2SCC(=O)Nc2ccccc2[N+](=O)[O-])c(Cl)cc1Cl` [Entry 133]: the results for the IC50 in assay [3] and in assay [4] were under 50 nM and over 100 nM, respectively. Moreover, the EC50 in assay [1] is under 50 nM; in assay [2] it was over 100 nM.
With `CC(C)Oc1cc(-n2nnnc2SCC(=O)Nc2ccccc2[N+](=O)[O-])c(Cl)cc1Cl` [Entry 134], the values for the IC50 in assay [3] and in assay [4] were under 50 nM and over 100 nM, respectively. The EC50 in assay [1] is under 50 nM; in assay [2], over 100 nM.
For `Cc1ccc(F)cc1-n1nnnc1SCC(=O)Nc1ccccc1[N+](=O)[O-]` [Entry 135], the IC50 is under 50 nM in assay [3] and over 100 nM in assay [4]. The figures for the EC50 in assay [1] and in assay [2] were under 50 nM and over 100 nM, respectively.
Consider `COc1ccc(Cl)cc1-n1nnnc1SCC(=O)Nc1ccccc1[N+](=O)[O-]` [Entry 136], for which the figures for the IC50 in assay [3] and in assay [4] were 50 to 100 nM and over 100 nM, respectively. The EC50 in assay [1] was under 50 nM; in assay [2], over 100 nM.
Regarding `Cc1cc(Br)cc(C)c1-n1nnnc1SCC(=O)Nc1ccccc1[N+](=O)[O-]` [Entry 140], the IC50 in assay [3] is under 50 nM; in assay [4] it was over 100 nM. For the same compound, the EC50 in assay [1] and in assay [2] was under 50 nM in each case.
For the compound `Cc1cc(C)c(-n2nnnc2SCC(=O)Nc2ccccc2[N+](=O)[O-])c(C)c1` [Entry 141], the 50% inhibitory concentration (IC50) in assay [3] and in assay [4] was over 100 nM throughout. For the same compound, the EC50 in assay [1] and in assay [2] was under 50 nM each time.
`O=C(CSc1nnnn1-c1cccc2ccccc12)Nc1ccccc1I` [Entry 210] displayed an IC50 in assay [3] of 50 to 100 nM. The EC50 is under 50 nM in assay [1] and over 100 nM in assay [2].
For `O=C(CSc1nnnn1-c1cccc2ccccc12)Nc1cccc(F)c1F` [Entry 230] the same measures were 50 to 100 nM, 50 to 100 nM and over 100 nM.
For `O=C(CSc1nnnn1-c1cccc2ccccc12)Nc1ccc(Cl)cc1Cl` [Entry 234] the same measures were 50 to 100 nM, 50 to 100 nM and over 100 nM.
For `O=C(CSc1nnnn1-c1cccc2ccccc12)Nc1ccc(C(=O)O)cc1Cl` [Entry 236], the results for the IC50 in assay [3] and in assay [4] were 50 to 100 nM and over 100 nM, respectively. For the same compound, the EC50 in assay [1] and in assay [2] was over 100 nM throughout.
With `N#Cc1ccc(NC(=O)CSc2nnnn2-c2cccc3ccccc23)c(Cl)c1` [Entry 239], the IC50 in assay [3] is 50 to 100 nM; in assay [4], over 100 nM. The EC50 in assay [1] is under 50 nM; in assay [2] it was over 100 nM.
Consider `CC(Sc1nnnn1-c1cccc2ccccc12)C(=O)Nc1ccccc1[N+](=O)[O-]` (stereo not drawn) [Entry 301], for which the IC50 in assay [3] is 50 to 100 nM; in assay [4], over 100 nM. Moreover, the figures for the EC50 in assay [1] and in assay [2] were under 50 nM and over 100 nM, respectively.
As to `O=C(CSc1nncn1-c1cccc2ccccc12)Nc1ccccc1[N+](=O)[O-]` [Entry 402, 2-{{4-(1-Naphthalenyl)-4H-1,2,4-triazol-3-yl}thio}-N-(2-nitrophenyl)acetamide], the IC50 in assay [3] (setting [5]) was 50 to 100 nM; in assay [4], over 100 nM. Further, the EC50 in assay [1] was under 50 nM; in assay [2] it was over 100 nM.
Take `Cc1cc(C)c(-n2nnnc2SCC(=O)Nc2ccccc2Cl)c(C)c1` [Entry 421]: the IC50 was under 50 nM in assay [3] (setting [5]) and over 100 nM in assay [4]. Moreover, the EC50 was under 50 nM in assay [1] and over 100 nM in assay [2].
